{
  "source": "patent US9358213B2",
  "about": "“Pharmaceutical compositions of duloxetine” (priority 2007, dated 2016)",
  "origin": "cited, not measured here",
  "data": [
    {"smiles": "CNCC[C@H](Oc1cccc2ccccc12)c1cccs1", "note": "[Duloxetine]", "values": [
      {"measurement": "stability at alkaline pH", "setting": "alkaline pH", "result": "stable"},
      {"measurement": "dosage hydrolyzed to 1-naphthol", "setting": "pH of 1.0, within one hour", "result": 50, "unit": "%"},
      {"measurement": "dosage degrades to 1-naphthol", "setting": "pH of 2.0, in one hour", "result": 10, "unit": "%"},
      {"measurement": "time for 10% degradation", "setting": "pH of 4.0", "result": "up to 63 hours"}
    ]}
  ]
}
